US6054435A, “6-O-substituted macrolides having antibacterial activity” (priority 1999, dated 2000)
Values after ≈ are worked out from the molar mass of the structure shown.

What was measured:
Assay in all cases: in vitro antibacterial activity (MIC), agar dilution
Format in all cases: cell-based
Escherichia coli SS = conditions: organism code RR; BHI agar, 35-37° C., 20 to 24 hours; unit assumed
Procedure, shortened: (§1)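 Plates of BHI agar were prepared with twelve aqueous dilutions of compound, then inoculated at 1:100 dilution, or 1:10 for slow growers like Streptococcus. After incubation they were inspected, and the lowest concentration yielding no growth, slight haze or sparse colonies was recorded as MIC.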

[1] = test system: Streptococcus pyogenes 930; conditions: organism code MM; BHI agar, 35-37° C., 20 to 24 hours; unit assumed
Procedure, shortened: as §1

[2] = test system: Mycobacterium smegmatis ATCC 114; conditions: organism code UU; BHI agar, 35-37° C., 20 to 24 hours; unit assumed
Procedure, shortened: as §1

[3] = test system: Streptococcus pyogenes PIU 2548; conditions: organism code NN; BHI agar, 35-37° C., 20 to 24 hours; unit assumed
Procedure, shortened: as §1

[4] = test system: Streptococcus Pneumonia 5649; conditions: organism code ZZA; BHI agar, 35-37° C., 20 to 24 hours; unit assumed
Procedure, shortened: as §1

[5] = test system: Staphylococcus aureus 1775; conditions: organism code GG; BHI agar, 35-37° C., 20 to 24 hours; unit assumed
Procedure, shortened: as §1

[6] = test system: Streptococcus Pneumonia GYR 1171; conditions: organism code YY; BHI agar, 35-37° C., 20 to 24 hours; unit assumed
Procedure, shortened: as §1

[7] = test system: Staphylococcus aureus ATCC 6538P; conditions: organism code AA; BHI agar, 35-37° C., 20 to 24 hours; unit assumed
Procedure, shortened: as §1

[8] = test system: Staphylococcus aureus A5177; conditions: organism code BB; BHI agar, 35-37° C., 20 to 24 hours; unit assumed
Procedure, shortened: as §1

[9] = test system: Nocardia Asteroides ATCC9970; conditions: organism code VV; BHI agar, 35-37° C., 20 to 24 hours; unit assumed
Procedure, shortened: as §1

[10] = test system: Micrococcus luteus ATCC 9341; conditions: organism code OO; BHI agar, 35-37° C., 20 to 24 hours; unit assumed
Procedure, shortened: (§2)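 Agar dilution in BHI agar, twelve successive compound dilutions. Inoculum 1:100, or 1:10 for slow-growing strains (e.g. Streptococcus), replicator-spotted. Read by eye; MIC = lowest concentration with no growth, slight haze or sparsely isolated colonies relative to growth control.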

[11] = test system: Staphylococcus aureus NCTC10649M; conditions: organism code EE; BHI agar, 35-37° C., 20 to 24 hours; unit assumed
Procedure, shortened: as §1

[12] = test system: Staphylococcus aureus CMX 642A; conditions: organism code DD; BHI agar, 35-37° C., 20 to 24 hours; unit assumed
Procedure, shortened: as §1

[13] = test system: Streptococcus Pneumonia 5979; conditions: organism code ZZ; BHI agar, 35-37° C., 20 to 24 hours; unit assumed
Procedure, shortened: as §1

[14] = test system: Enterococcus faecium ATCC 8043; conditions: organism code II; BHI agar, 35-37° C., 20 to 24 hours; unit assumed
Procedure, shortened: as §1

[15] = test system: Streptococcus Pneumonia ATCC6303; conditions: organism code XX; BHI agar, 35-37° C., 20 to 24 hours; unit assumed
Procedure, shortened: as §1

[16] = test system: Staphylococcus epidermidis 3519; conditions: organism code HH; BHI agar, 35-37° C., 20 to 24 hours; unit assumed
Procedure, shortened: as §1

[17] = test system: Streptococcus bovis A-5169; conditions: organism code JJ; BHI agar, 35-37° C., 20 to 24 hours; unit assumed
Procedure, shortened: as §1

[18] = test system: Haemophilis Influenzae DILL AMP R; conditions: organism code WW; BHI agar, 35-37° C., 20 to 24 hours; unit assumed
Procedure, shortened: as §1

[19] = test system: Streptococcus pyogenes EES61; conditions: organism code LL; BHI agar, 35-37° C., 20 to 24 hours; unit assumed
Procedure, shortened: as §1

Escherichia coli JUHL = conditions: organism code QQ; BHI agar, 35-37° C., 20 to 24 hours; unit assumed
Procedure, shortened: as §1

Escherichia coli DC-2 = conditions: organism code SS; BHI agar, 35-37° C., 20 to 24 hours; unit assumed
Procedure, shortened: as §1

[20] = test system: Micrococcus luteus ATCC 4698; conditions: organism code PP; BHI agar, 35-37° C., 20 to 24 hours; unit assumed
Procedure, shortened: as §2

Candida albicans CCH 442 = conditions: organism code TT; BHI agar, 35-37° C., 20 to 24 hours; unit assumed
Procedure, shortened: as §1

[21] = test system: Staphylococcus aureus CMX 553; conditions: organism code FF; BHI agar, 35-37° C., 20 to 24 hours; unit assumed
Procedure, shortened: as §1

[22] = test system: Staphylococcus aureus A-5278; conditions: organism code CC; BHI agar, 35-37° C., 20 to 24 hours; unit assumed
Procedure, shortened: as §1

[23] = test system: Streptococcus agalactiae CMX 508; conditions: organism code KK; BHI agar, 35-37° C., 20 to 24 hours; unit assumed
Procedure, shortened: as §1

Structure (SMILES) | MIC (Escherichia coli SS) [µg/mL] | MIC [1] [µg/mL] | MIC [2] [µg/mL] | MIC [3] [µg/mL] | MIC [4] [µg/mL] | MIC [5] [µg/mL] | MIC [6] [µg/mL] | MIC [7] [µg/mL] | MIC [8] [µg/mL] | MIC [9] [µg/mL] | MIC [10] [µg/mL] | MIC [11] [µg/mL] | MIC [12] [µg/mL] | MIC [13] [µg/mL] | MIC [14] [µg/mL] | MIC [15] [µg/mL] | MIC [16] [µg/mL] | MIC [17] [µg/mL] | MIC [18] [µg/mL] | MIC [19] [µg/mL] | also measured
CC[C@H]1OC(=O)[C@H](C)C(=O)[C@H](C)[C@@H](O[C@@H]2O[C@H](C)C[C@H](N(C)C)[C@H]2O)[C@](C)(OCC#Cc2ccc(-c3cncs3)s2)C[C@@H](C)C(=O)[C@H](C)[C@H]2NC(=O)O[C@@]21C [Example 29] | 0.1 (≈ 0.125 µM) | 3.1 (≈ 3.87 µM) | 0.39 (≈ 0.486 µM) | 0.05 (≈ 0.0623 µM) | 0.25 (≈ 0.312 µM) | > 100 | ≤ 0.004 | 0.05 (≈ 0.0623 µM) | 0.05 (≈ 0.0623 µM) | ≤ 0.005 | ≤ 0.005 | 0.02 (≈ 0.0249 µM) | 0.05 (≈ 0.0623 µM) | 1 (≈ 1.25 µM) | 0.01 (≈ 0.0125 µM) | ≤ 0.004 | 0.05 (≈ 0.0623 µM) | ≤ 0.005 | 2 (≈ 2.49 µM) | 0.01 (≈ 0.0125 µM) | MIC (Escherichia coli JUHL): 25 µg/mL (≈ 31.2 µM); MIC (Escherichia coli DC-2): 50 µg/mL (≈ 62.3 µM); MIC [20]: 0.05 µg/mL (≈ 0.0623 µM); MIC (Candida albicans CCH 442): > 100 µg/mL; MIC [21]: 0.02 µg/mL (≈ 0.0249 µM); MIC [22]: > 100 µg/mL; MIC [23]: 0.01 µg/mL (≈ 0.0125 µM)
CC[C@H]1OC(=O)[C@H](C)C(=O)[C@H](C)[C@@H](O[C@@H]2O[C@H](C)C[C@H](N(C)C)[C@H]2O)[C@](C)(OCC#Cc2ccc(-c3nccn3C)s2)C[C@@H](C)C(=O)[C@H](C)[C@H]2NC(=O)O[C@@]21C [Example 32] | 0.2 (≈ 0.25 µM) | 12.5 (≈ 15.6 µM) | 1.56 (≈ 1.95 µM) | 0.39 (≈ 0.488 µM) | 0.25 (≈ 0.313 µM) | > 100 | 0.03 (≈ 0.0375 µM) | 0.05 (≈ 0.0626 µM) | 0.05 (≈ 0.0626 µM) | 0.01 (≈ 0.0125 µM) | 0.01 (≈ 0.0125 µM) | 0.1 (≈ 0.125 µM) | 0.05 (≈ 0.0626 µM) | 0.25 (≈ 0.313 µM) | 0.02 (≈ 0.025 µM) | 0.03 (≈ 0.0375 µM) | 0.1 (≈ 0.125 µM) | ≤ 0.005 | 2 (≈ 2.5 µM) | 0.01 (≈ 0.0125 µM) | MIC (Escherichia coli JUHL): 50 µg/mL (≈ 62.6 µM); MIC (Escherichia coli DC-2): > 100 µg/mL; MIC [20]: 0.05 µg/mL (≈ 0.0626 µM); MIC (Candida albicans CCH 442): > 100 µg/mL; MIC [21]: 0.05 µg/mL (≈ 0.0626 µM); MIC [22]: > 100 µg/mL; MIC [23]: 0.01 µg/mL (≈ 0.0125 µM)
CC[C@H]1OC(=O)[C@H](C)C(=O)[C@H](C)[C@@H](O[C@@H]2O[C@H](C)C[C@H](N(C)C)[C@H]2O)[C@](C)(OCC#Cc2ccc(-c3cnc4ccccc4n3)s2)C[C@@H](C)C(=O)[C@H](C)[C@H]2NC(=O)O[C@@]21C [Example 33] | 0.78 (≈ 0.921 µM) | 0.39 (≈ 0.46 µM) | 0.2 (≈ 0.236 µM) | 0.2 (≈ 0.236 µM) | 0.25 (≈ 0.295 µM) | 50 (≈ 59 µM) | 0.03 (≈ 0.0354 µM) | 0.2 (≈ 0.236 µM) | 0.2 (≈ 0.236 µM) | 0.1 (≈ 0.118 µM) | 0.05 (≈ 0.059 µM) | 0.39 (≈ 0.46 µM) | 0.2 (≈ 0.236 µM) | 0.25 (≈ 0.295 µM) | 0.05 (≈ 0.059 µM) | 0.03 (≈ 0.0354 µM) | 0.2 (≈ 0.236 µM) | 0.01 (≈ 0.0118 µM) | 4 (≈ 4.72 µM) | 0.02 (≈ 0.0236 µM) | MIC (Escherichia coli JUHL): > 100 µg/mL; MIC (Escherichia coli DC-2): > 100 µg/mL; MIC [20]: 0.05 µg/mL (≈ 0.059 µM); MIC (Candida albicans CCH 442): > 100 µg/mL; MIC [21]: 0.2 µg/mL (≈ 0.236 µM); MIC [22]: 25 µg/mL (≈ 29.5 µM); MIC [23]: 0.01 µg/mL (≈ 0.0118 µM)
